In paper PMC11193793 (Scientific Reports, 2024):
Where two headings read alike, the source gives them in different places.

How the values were obtained:
ovine COX-1 = target: T1, ovine COX-1 (Ovis aries, UniProt P05979); test: biochemical
T1 sequence (P05979 25-600): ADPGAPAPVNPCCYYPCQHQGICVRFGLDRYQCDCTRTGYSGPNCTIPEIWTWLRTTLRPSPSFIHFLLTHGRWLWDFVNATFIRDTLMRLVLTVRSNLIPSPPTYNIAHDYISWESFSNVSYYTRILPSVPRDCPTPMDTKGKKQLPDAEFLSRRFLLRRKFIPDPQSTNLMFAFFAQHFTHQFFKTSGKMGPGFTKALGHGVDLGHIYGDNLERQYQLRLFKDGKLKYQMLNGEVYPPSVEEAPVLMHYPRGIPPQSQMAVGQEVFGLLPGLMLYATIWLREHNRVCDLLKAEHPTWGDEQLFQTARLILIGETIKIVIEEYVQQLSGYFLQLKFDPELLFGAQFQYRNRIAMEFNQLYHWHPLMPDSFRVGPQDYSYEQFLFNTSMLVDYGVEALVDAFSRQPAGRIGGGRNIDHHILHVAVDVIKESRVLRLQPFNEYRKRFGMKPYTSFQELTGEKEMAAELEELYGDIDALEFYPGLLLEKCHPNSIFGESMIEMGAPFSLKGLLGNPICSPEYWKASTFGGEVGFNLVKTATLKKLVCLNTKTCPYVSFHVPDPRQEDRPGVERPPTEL
Description: (§1) The full method is provided in the Supplementary materials.
(§2) Serial dilutions (100, 10, 1, 0.1, and 0.01 µg/mL) of the F. solani extract and the isolated metabolites were prepared and solvated in DMSO, then estimated for their abilities to inhibit the synthesis of prostaglandin using the kits for screening test for COX inhibitors (BioVision, Inc., USA, Mountain View, Catalog # K548-100 and Catalog # K547-100, for COX- […]
(§3) The investigational methodology was carried out following the provider’s recommendations. Arachidonic acid is being converted into prostaglandin (PGH2) by the cyclooxygenase enzyme (COX). During the reduction, the PGF2α formed in PGH2 via stannous chloride was evaluated via ELISA (enzyme-linked immunoassay). This bioassay is based on the competition among an antibody; PGspecific and a cholinesterase conjugate; PG-acetyl. The developed (antibody-PG) was combined with an acetylcholinesterase substrate included in Ellman's reagent. Each sample (20 µL) was used, (10 µL) heme, and (10 µL) enzyme, were combined to the reaction buffer solution (160 µL) formed of (2 mM phenol and 5 mM ethylenediamine tetra acetate (EDTA) in 0.1 M Tris-HCl, pH 8), followed by incubation of the mixture in a water bath at 37 °C for 10 min. Subsequently, starting the COX reaction was done by adding 10 µL of arachidonic acid, with a final concentration of […], to the reaction mixture.
(§4) Later, the COX reactions were ended after 2 min by adding saturated stannous chloride (30 µL), then inoculate for 5 min at room temperature. Afterwards, the PGF2α level was measured using ELISA. Subsequent move to a 96-well plate, inoculate the samples at room temperature for 18 h, then wash the plate to eliminate any residual reagents, followed by the addition of Ellman’s reagent (200 µL) which contains an acetylcholinesterase substrate, and incubation at room temperature for 60 to 90 min. A spectrophotometer with a microplate reader at 410 nm was used to measure the produced color at 410 […]
(§5) The data mean values from three measurements were used to calculate IC50 values. […]

recombinant human COX-2 = target: T2, recombinant human COX-2 (Homo sapiens, UniProt P35354); test: biochemical; conditions: for Selectivity index (SI): COX-2 selectivity from COX-1 and COX-2 IC50
T2 sequence (P35354 18-604): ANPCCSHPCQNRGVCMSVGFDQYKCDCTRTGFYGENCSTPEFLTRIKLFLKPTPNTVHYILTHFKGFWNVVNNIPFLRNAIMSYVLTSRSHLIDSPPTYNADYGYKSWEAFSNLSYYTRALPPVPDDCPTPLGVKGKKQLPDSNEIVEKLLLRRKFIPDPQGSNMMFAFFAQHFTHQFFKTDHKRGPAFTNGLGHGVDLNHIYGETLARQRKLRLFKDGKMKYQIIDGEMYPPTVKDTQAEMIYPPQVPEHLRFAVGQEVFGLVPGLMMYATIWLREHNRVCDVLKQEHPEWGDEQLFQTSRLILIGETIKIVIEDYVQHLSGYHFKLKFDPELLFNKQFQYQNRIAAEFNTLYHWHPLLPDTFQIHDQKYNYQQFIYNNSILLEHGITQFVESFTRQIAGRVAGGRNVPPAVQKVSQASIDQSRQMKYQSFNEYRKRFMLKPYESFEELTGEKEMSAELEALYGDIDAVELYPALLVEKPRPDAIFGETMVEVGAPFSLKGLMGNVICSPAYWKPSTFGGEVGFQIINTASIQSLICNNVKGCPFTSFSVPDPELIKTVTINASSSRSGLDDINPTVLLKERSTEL
Description: as §1, §2, §3, §4, §5

tyrosinase enzyme = test: Tyrosinase inhibitory assay (L-DOPA substrate, BioVision kit); format: biochemical; conditions: mean ± SEM, triplicate
From the text: The anti-tyrosinase capacities of the F. solani extract together with the six isolated metabolites were investigated via evaluating their inhibitory activities against tyrosinase enzyme. The full method is provided in the Supplementary materials. […]
Tyrosinase inhibitory assay
The anti-tyrosinase capacities of the F. solani extract together with the six isolated metabolites were investigated via evaluating their inhibitory activities against tyrosinase enzyme using the kits for screening test of tyrosinase enzyme inhibition (BioVision, Inc., USA, Mountain View, Catalog # K575-100).
First, all samples were dissolved using DMSO (reference drug, EtOAc extract and the isolated compounds) preparing different concentrations. The assay of tyrosinase inhibition was done as previously reported 3. The mixture of assay composed of test solution (1900 μL) in (0.1 M) buffer phosphate pH 6.8 and freshly prepared enzyme solution (100 μL) which is composed of 15 U/mL in (0.1 M) buffer phosphate pH 6.8. The 30 min. of room temperature after pre-incubation, the reaction was started by adding substrate solution (1000 μL) which composed of L-DOPA (1.5 Mm) in buffer phosphate (0.1 M) pH 6.8. After 7 minutes of room temperature incubation, the mixture of the assay was analyzed for absorbance at […]
510 nm. […] The activity of tyrosinase inhibition
(The activity of the enzyme together with the tested samples). The mean values of the data from three measurements were used to calculate IC50 values.

[1] = mean ± SEM, triplicate, read-out: IC50 COX-1
[2] = mean ± SEM, triplicate, read-out: IC50 COX-2

Row | Structure (SMILES) | IC50 (ovine COX-1; [1]) | Selectivity index (SI) (recombinant human COX-2) | IC50 (recombinant human COX-2; [2]) | IC50 (tyrosinase enzyme; listed as 4-hydroxybenzaldehyde) | IC50 (tyrosinase enzyme; listed as 4-hydroxybenzaldehyde (1)) | IC50 (tyrosinase enzyme) | IC50 (ovine COX-1) | IC50 (tyrosinase enzyme; listed as malic acid) | IC50 (recombinant human COX-2)
1 | O=Cc1ccc(O)cc1 [4-Hydroxybenzaldehyde (1), 4-hydroxybenzaldehyde] | 25.7 ± 0.55 µM | 2.9 | 8.87 ± 0.26 µM | > 50 µM | 70.6 ± 1.49 µM | – | – | – | –
2 | O=C(O)c1ccc(O)cc1 [4-Hydroxybenzoic acid (2), 4-hydroxybenzoic acid] | 44.5 ± 0.92 µM | – | 28.4 ± 0.76 µM | – | – | 25.4 ± 0.53 µM | – | – | –
3 | O=C(O)CCCCCCCC(=O)O [Azelaic acid (4), azelaic acid] | 11.6 ± 0.29 µM | 5.24 | 2.21 ± 0.06 µM | – | – | 8.75 ± 0.18 µM | – | – | –
4 | CCCCc1ccc(C(=O)O)nc1 [Fusaric acid (6), fusaric acid] | – | 0.8 | 4.81 ± 0.14 µM | – | – | 13.4 ± 0.27 µM | 3.86 ± 0.05 µM | – | –
5 | O=C(O)CC(O)C(=O)O (stereo not drawn) [Malic acid (5), malic acid] | – | – | 10.4 ± 0.3 µM | – | – | 87.5 ± 1.84 µM | 51 ± 0.86 µM | > 50 µM | –
6 | OCCc1ccc(O)cc1 [Tyrosol (3), tyrosol] | – | 4.49 | – | – | – | 11.3 ± 0.24 µM | 23.9 ± 0.38 µM | – | 5.31 ± 0.15 µM
